Entries after “also recorded” stand apart in the source; their conditions may differ. Where no end group is shown, it is not given here. [ ]: non-standard residue; d: D form.
Tests used:
[1] = system: Raw macrophage-derived cells; assay: Cell proliferation assay (phenol red, LDH content); format: cell-based; settings: for Effect on growth of raw macrophage-derived cells: 2.5 μM, 48 hrs, phenol red / LDH content
Experimental: Use of the exemplary peptide of the invention as a carrier moiety was also examined in a cell proliferation assay. Raw macrophage-derived cells were incubated for 48 hrs with 2.5 μM of the indicated nucleoside analog or the analog as a conjugate with the RYF peptide in the presence of phenol red. Cultures containing dividing cells turn medium clear, while the medium of cultures containing in non-dividing cells remains dark (active compounds). Percentage growth was also determined by measuring the relative content of LDH (FIG. 11B). […] For example, the “ribo” and “tg” (Thioguanine) compounds have no effect at the concentration tested (2.5 μm), but become potently cytotoxic when conjugated to an exemplary peptide transporter of the invention (i.e., RYF).
The Experiment was repeated to investigate the effects of the L- or D-linkage on cytotoxic properties of the BAM moiety. The cells were incubated with 3′ amino β-D-arabinofuranoside either alone or in the form of a conjugate with the RYF peptide. […] However, once the 3′ position is conjugated to a D-entantiomer, it cannot be removed by a protease, and once incorporated into the DNA-strand, it will function to prevent further DNA elongation.
The experiment was repeated with 3′AdT (3′ amino deoxythymidine) and 3′ amino β-D-arabinofuranoside (Ribo). Cells were incubated with each of the compounds alone or as an N-terminally linked conjugate to the RYF peptide via either L-Glu (E) or D-Glu (e). The cells were then incubated for 72 hrs before LDH content was measured.

[2] = system: leukemia/lymphoma cell lines; assay: Cancer cell line screening panel, summary over leukemia/lymphoma lines; format: cell-based, human; settings: 6 leukemia/lymphoma cell lines
Experimental: (§1) The use of peptides of the invention as carrier molecules was investigated in a screening panel of human cancer cell lines. The human tumor cell lines of the cancer screening panel were grown in RPMI 1640 medium containing 5% fetal bovine serum and 2 mM L-glutamine. For a typical screening experiment, cells were inoculated into 96 well microtiter plates in volumes of 100 μL at plating densities ranging from 5,000 to 40,000 cells/well depending on the doubling time of individual cell lines. […] After 24 h, two plates of each cell line were fixed in situ with TCA to provide a measurement of the cell population at the time of drug addition (Tz). The experimental therapeutics were solubilized in dimethyl sulfoxide at 400-fold the desired final maximum test concentration and stored frozen prior to use. […] Bound stain was subsequently solubilized with 10 mM trizma base, and the absorbance was read on an automated plate reader at a wavelength of 515 nm. […] Using the seven absorbance measurements [time zero, (Tz), control growth, (C), and test growth in the presence of compound at the five concentration levels (Ti)], the percentage growth was calculated at each of the compound concentrations levels. Percentage growth inhibition was calculated as: [(Ti−Tz)/(C−Tz)]×100 for concentrations for which Ti≧Tz [(Ti−Tz)/Tz]×100 for concentrations for which Ti<Tz.

[3] = system: cell lines from other lineages; assay: Cancer cell line screening panel, summary over other lineages; format: cell-based, human; settings: 54 cell lines from other lineages
Experimental: as §1

CHO cells = assay: FITC-peptide binding to C4S expressing cells, fluorescence microscopy; format: cell-based; parameters: dose or concentration left out as unconfirmed; settings: FITC conjugated peptide, 24 hrs
From the text: (§2) As explained throughout the description, the present molecules are able to selectively bind C4S over other proteoglycans.

[4] = system: chondroitin-4-sulfate (C4S); assay: Modified ELISA, peptide binding to coated proteoglycans
Experimental: The binding of the nine-mer peptides of the invention to C4S predicted by the models, in particular, as compared to the binding to other proteoglycans was tested using a modified ELISA protocol. ELISA plates were coated overnight with 1 mg/ml of heparin sulphate (HS), chondroitin-4-sulfate (C4S), chondroitin-6-sulfate (C6S) or hyaluronic acid (HA) in PBS. The wells were then washed with PBS and incubated for 1 hour at room temperature with 1 mg/ml of an exemplary peptide of the invention having the sequence RYFvRIKYRh (“RYF”; SEQ ID NO:2) or a standard TAT peptide. The plates were then thoroughly washed with PBS and subsequently photographed with a LUMASCOPE™ luminescent microscope. Images were then quantified using the ImageJ software (FIG. 4).
The same modified ELISA protocol was used to examine the impact of altering the chirality of the amino acid residues at positions 1, 5, 9 and 3 or 7 on the binding of the peptides to C4S. […] In FIG. 5, an upper case letter indicates an L-enantiomer and a lower case letter indicates a D-enantiomer.

Sog9 cells = assay: FITC-peptide binding to cells lacking C4S, fluorescence microscopy; format: cell-based; parameters: dose or concentration left out as unconfirmed; settings: FITC conjugated peptide, 24 hrs
From the text: as §2

Macrophages = assay: FITC-RYF binding to chlorate pre-treated macrophages; format: cell-based; settings: 0, 3, 10 or 30 μM chlorate for 16 hours
Experimental: The same fluorescent microscopy procedure was used to assess the binding of the FITC-RYF peptide on C4S expressing cells pre-treated with chlorate. Chlorate is an inhibitor of sulfotransferases, and, thus, chlorate treatment decreases or inhibits C4S expression. Macrophages were treated with 0, 3, 10 or 30 μM chlorate for 16 hours prior to washing, incubation with RYF (SEQ ID NO:2) peptide and photography as described above.

Compound: 3′ amino β-D-arabinofuranoside [Ribo]
- Effect on growth of raw macrophage-derived cells [1]: no effect
- Activity on cell growth (LDH content) ([1]; 72 hrs, alone or N-terminally linked to RYF via L-Glu (E) or D-Glu (e)): inactive

Compound: Nc1nc2nc[nH]c2c(=S)[nH]1 [tg, Thioguanine]
- mean growth [2]: 44.13 % of untreated
- Effect on growth of raw macrophage-derived cells [1]: no effect
- mean growth [3]: 86.65 % of untreated

Compound: RYFvRIKYRh (RYF[dV]RIKYR[dH])
- Binding to CHO cells expressing C4S (CHO cells): intense, uniform binding
- Binding to C4S ([4]; ELISA plates coated with 1 mg/ml C4S, 1 mg/ml peptide, 1 hour, room temperature): specifically binds to the C4S proteoglycan
- Selective binding to C4S over other proteoglycans ([4]; versus heparin sulphate (HS), chondroitin-6-sulfate (C6S), hyaluronic acid (HA)): selectively binds C4S over the other proteoglycans tested; also recorded: specifically and selectively binds C4S over other proteoglycans
- Binding to Sog9 cells lacking C4S (Sog9 cells): did not bind; also recorded: failed to bind
- Binding to macrophages pre-treated with chlorate (Macrophages): binding correlated with chondroytine sulfate expression; also recorded: binding decreased with decreasing C4S expression
